Data taken from US7960395B2, “5,7-disubstituted thiazolo[4,5-d]pyrimidines for the selective inhibition of chemokine receptors” (AstraZeneca AB, priority 2006, dated 2011).

Target: T1, hCX3CR1 (Homo sapiens, UniProt P49238)
T1 construct: expressed in transfected cells; host or cells: human embryonic kidney suspension (HEKS) 293 cells stably expressing chimeric G-protein Gαqi5; membranes prepared from them
T1 sequence (P49238 1-355): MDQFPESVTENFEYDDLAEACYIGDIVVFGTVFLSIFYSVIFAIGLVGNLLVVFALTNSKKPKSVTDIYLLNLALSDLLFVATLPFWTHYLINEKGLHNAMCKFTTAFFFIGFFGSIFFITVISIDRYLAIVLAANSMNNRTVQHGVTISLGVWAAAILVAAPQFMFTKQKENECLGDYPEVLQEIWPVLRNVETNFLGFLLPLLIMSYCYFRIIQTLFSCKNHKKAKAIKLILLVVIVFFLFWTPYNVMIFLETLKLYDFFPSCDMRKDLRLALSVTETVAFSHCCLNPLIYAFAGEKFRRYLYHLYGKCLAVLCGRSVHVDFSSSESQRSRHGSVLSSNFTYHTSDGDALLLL
Assay: in vitro hCX3CR1 binding assay ([125I]-fractalkine competition binding, membranes)
Conditions: final compounds
Excerpt: Recombinant human fractalkine (hCX3CL1) and recombinant human interleukin-8 (IL-8 or hCXCL8) were purchased from PeproTech Inc., UK. Recombinant [^125I]-fractalkine (human) and [^125I]hIL-8 with the specific activity of 2200 Ci/mmol, was purchased from NEN® Life Science Products, Inc., UK. Fluo-4-AM was purchased from Molecular Probes, US. All other chemicals were of analytical grade.
The complete human CX3CR1 cDNA (GenBank accession number U20350) was extracted from human brain mRNA (Superscript, Life Technologies) and ligated into pCR-Blunt II TOPO vector (InVitrogen). The insert corresponding hCX3CR1 was isolated and further subcloned into pcDNA3.1zeo. Plasmid DNA was prepared using Plasmid Midi Kit (Qiagen). Using Superfect Transfection Reagent (Qiagen) according to the manufacturer's protocol the expression plasmid for hCX3CR1 was then introduced into human embryonic kidney suspension (HEKS) 293 cell line containing a vector for stable expression of a chimeric G-protein Gαqi5. A stable clone was generated utilizing zeocin (500 μg/mL) and hygromycin (100 μg/mL) selection. For further applications the cells were maintained in Dulbecco's modified Eagle's medium/Ham's nutrient mix F12 (DMEM/F12) containing pyridoxine and supplemented with 10% (v/v) fetal bovine serum, 2 mM L-glutamine, 100 U/ml penicillin and […] streptomycin, 250 μg/mL zeocin and 100 μg/mL hygromycin.
Cells are grown at 37° C. and 5% CO2 and harvested at 60-80% confluence in buffer containing 10 mM Tris-HCl pH 7.4, 5 mM EDTA, 0.1 mg/mL bacitracin. The cells are centrifuged at 300×g for 10 min and the pellet is resuspended in harvesting buffer (10 mM Tris-HCl, pH 7.4, 5 mM ethylenediaminetetra-aceticacid (EDTA) and 0.1 mg/mL bacitracin), pooled and homogenised using a Dounce homogeniser. The homogenate is centrifuged in 48000×g for 10 min and resuspended in harvesting buffer using Ultra-Turrax T8. Membrane aliquots are stored at −80° C. Protein concentration was determined in microtiter plates as described by Harrington (1990, Anal. Biochem. 186, 285-287).
Competition binding studies of [^125I]fraktalkine were performed in 2 mL 96-deep-well plates (Beckman, Germany) in a total volume of 1000 μL/well. Each well contained […] [^125I]-fractalkine and membrane equivalent to receptor concentration of 1 μM in assay buffer (50 mM Hepes-KOH, pH 7.4, 10 mM MgCl2, 1 mM EDTA, 0.1% (w/v) gelatine). Ten concentrations (2 points/log unit) of the test compounds were pre-dissolved in DMSO and added to reach a final concentration of 1% (v/v) DMSO. The assay was initiated with the addition of membranes and incubated at 25° C. for 24 h. The reactions were stopped by rapid filtration through Whatman GF/B glass fiber filters pretreated with 0.3% polyethylimine and subsequent washing with ice-cold buffer (10 mM Hepes-KOH pH 7.4, 500 mM NaCl) using a Brandel receptor binding harvester. Scintillation cocktail was added and radioactivity was determined in a Packard 2500TR liquid scintillation counter. (Perkin Elmer, USA)

SMILES | Ki [nM]
CC(C)C[C@H](CO)Nc1nc(S[C@@H](C)c2ccc(Cl)cn2)nc2[nH]c(=O)sc12 [Example 1, 5-{[(1S)-1-(5-Chloropyridin-2-yl)ethyl]thio}-7-{[(1R)-1-(hydroxymethyl)-3-methylbutyl]amino}[1,3]thiazolo[4,5-d]pyrimidin-2(3H)-one] | 5.8
CC(C)C[C@H](CO)Nc1nc(S[C@@H](C)c2ccc(F)cn2)nc2[nH]c(=O)sc12 [Example 2, 5-{[(1S)-1-(5-Fluoropyridin-2-yl)ethyl]thio}-7-{[(1R)-1-(hydroxymethyl)-3-methylbutyl]amino}[1,3]thiazolo[4,5-d]pyrimidin-2(3H)-one] | 20
CC(C)C[C@H](CO)Nc1nc(S[C@@H](C)c2ncccc2F)nc2[nH]c(=O)sc12 [Example 4, 5-{[(1S)-1-(3-Fluoropyridin-2-yl)ethyl]thio}-7-{[(1R)-1-(hydroxymethyl)-3-methylbutyl]amino}[1,3]thiazolo[4,5-d]pyrimidin-2(3H)-one] | 18
CCC[C@H](CO)Nc1nc(S[C@@H](C)c2ccc(Cl)nc2)nc2[nH]c(=O)sc12 [Example 6, 5-{[(1S)-1-(6-Chloropyridin-3-yl)ethyl]thio}-7-{[(1R)-1-(hydroxymethyl)butyl]amino}[1,3]thiazolo[4,5-d]pyrimidin-2(3H)-one] | 21.4
CCC[C@H](CO)N(C)c1nc(S[C@@H](C)c2ccc(Cl)nc2)nc2[nH]c(=O)sc12 [Example 7, 5-{[(1S)-1-(6-Chloropyridin-3-yl)ethyl]thio}-7-[[(1R)-1-(hydroxymethyl)butyl](methyl)amino][1,3]thiazolo[4,5-d]pyrimidin-2(3H)-one] | 440
CC(C)C[C@H](CO)Nc1nc(S[C@H](C)c2ccncc2F)nc2[nH]c(=O)sc12 [Example 8a, 5-{[(1R)-1-(3-Fluoropyridin-4-yl)ethyl]thio}-7-{[(1R)-1-(hydroxymethyl)-3-methylbutyl]amino}[1,3]thiazolo[4,5-d]pyrimidin-2(3H)-one] | 97
CC(C)C[C@H](CO)Nc1nc(S[C@@H](C)c2ccncc2F)nc2[nH]c(=O)sc12 [Example 8b, 5-{[(1S)-1-(3-Fluoropyridin-4-yl)ethyl]thio}-7-{[(1R)-1-(hydroxymethyl)-3-methylbutyl]amino}[1,3]thiazolo[4,5-d]pyrimidin-2(3H)-one] | 1.5
